According to patent publication US20220273607A1, “METHODS OF USING MODIFIED […] TREAT CANCER” (NORTHWESTERN UNIVERSITY, priority 2019, published 2022):

Experiments:
Assay type in all cases: cell-based
HepG2 cells = assay: CellTiter Blue cytotoxicity with and without CD36 blocker SSO, HepG2; conditions: different compound concentrations and different concentrations of SSO, FIG. 5
HT-1080 cells = assay: CellTiter Blue cytotoxicity with and without CD36 blocker SSO, HT-1080; conditions: different compound concentrations and different concentrations of SSO, FIG. 3
Procedure: The compound of Example 2 (ODDA-PTX) was compared with paclitaxel (PTX) in terms of cellular uptake. The comparison was carried out in HT-1080 cell culture using sulfosuccinimidyl oleate (SSO), a chemical blocker of fatty acid translocase/CD36:
Cytotoxicity of the compounds was evaluated using the CellTiter Blue (CTB) assay (Promega, cat G8081). Treatments of fatty acid-conjugates were prepared as 1000× serial stock dilutions in DMSO, then diluted into media for 1×, 0.1% DMSO treatment solutions. […]
Expression of CD36 in HT-1080 was validated using flow cytometry and a fluorophore-conjugated CD36 antibody (CD36, eFluor 660, clone: eBioNL07 (NL07), eBioscience). […] Cells were resuspended in a final volume of 100 μL resuspension and analyzed via flow cytometry for presence of CD36. […]
HT-1080 cells were plated in 96-well plates one day before treatment, at a seeding density of 10,000 cells/well. […] Fluorescence was measured at 590 nm with excitation at 560 nm using a Perkin Elmer EnSpire plate reader. Average background fluorescence readings of the experimental wells (three wells per treatment concentration). Viability was calculated as the average background-subtracted signal in a well compared to that of a negative control (cells treated with vehicle, […] in media). […]

MCF-7 cells = assay: CellTiter Blue cytotoxicity with and without CD36 blocker SSO, MCF-7; conditions: different compound concentrations and different concentrations of SSO, FIG. 4

**Q.** What does the source list for CC(=O)O[C@H]1C(=O)[C@@]2(C)[C@H]([C@H](OC(=O)c3ccccc3)[C@]3(O)C[C@H](OC(=O)[C@H](OC(=O)CCCCCCCCCCCCCCCCC(=O)O)[C@@H](NC(=O)c4ccccc4)c4ccccc4)C(C)=C1C3(C)C)[C@]1(OC(C)=O)CO[C@@H]1C[C@@H]2O [ODDA-PTX, Paclitaxel-C18 Diacid Conjugate]?
**A.** change of percent viability of the cells with increasing concentration of the CD36 inhibitor (HepG2 cells): increasing the concentration of the CD36 inhibitor correlates with increasing percent viability; change of percent viability of the cells with increasing concentration of the CD36 inhibitor (HT-1080 cells): increasing the concentration of the CD36 inhibitor correlates with increasing percent viability; change of percent viability of the cells with increasing concentration of the CD36 inhibitor (MCF-7 cells): increasing the concentration of the CD36 inhibitor correlates with increasing percent viability
